The source of these data is ChEMBL document CHEMBL4190333, “Cyclic Biphalin Analogues Incorporating a Xylene Bridge: Synthesis, Characterization, and Biological Profile” (ACS Med Chem Lett, 2017).

Data set [1] deals with Mus musculus. The data set can be described thus: Analgesic activity in formalin-induced nociception Harlan CD-1 mouse model assessed as reduction in time spent in licking or biting formalin injected hind paw during neurogenic phase at 0.1 nmol, sc pretreated for 15 mins followed by formalin induction measured up to 10 mins. It is filed as functional, organism-based.
Data set [2] concerns Mus musculus. The experiment in a line: Analgesic activity in formalin-induced nociception Harlan CD-1 mouse model assessed as reduction in time spent in licking or biting formalin injected hind paw during inflammatory phase at 0.1 nmol, sc pretreated for 15 mins followed by formalin induction measured after 15 to 40 mins. It is filed as functional, organism-based.
The species entered for data set [3] is Rattus norvegicus. The experiment in a line: (§1) Agonist activity at heteromeric G-protein in Wistar rat whole brain membranes after 30 mins by [35S]GTPgammaS binding assay. It is filed as cell membranes. The settings on record: Membrane.
Data set [4] can be described thus: as §1. It is filed as cell membranes, Membrane.
The species named for data set [5] is Rattus norvegicus. The experiment in a line: Selectivity ratio of Ki for displacement of [3H]lleDelt2 from DOR in Wistar rat whole brain membranes to displacement of [3H]DAMGO from MOR in Wistar rat whole brain membranes. It is filed as cell membranes.
The subject of data set [6] is Mus musculus. The experiment in a line: Antinociceptive activity in Harlan CD-1 mouse model of thermal-induced nociception assessed as increase in latency to tail withdrawal at 0.01 nmol, icv measured after 15 to 120 mins by tail flick test. Format: functional, organism-based.
The target of data set [7] is Delta-type opioid receptor (Rattus norvegicus, UniProt P33533). The experiment in a line: Displacement of [3H]lleDelt2 from DOR in Wistar rat whole brain membranes after 45 mins by liquid scintillation counting method. Format: cell membranes, Membrane.
Delta-type opioid receptor, sequence (P33533 whole entry): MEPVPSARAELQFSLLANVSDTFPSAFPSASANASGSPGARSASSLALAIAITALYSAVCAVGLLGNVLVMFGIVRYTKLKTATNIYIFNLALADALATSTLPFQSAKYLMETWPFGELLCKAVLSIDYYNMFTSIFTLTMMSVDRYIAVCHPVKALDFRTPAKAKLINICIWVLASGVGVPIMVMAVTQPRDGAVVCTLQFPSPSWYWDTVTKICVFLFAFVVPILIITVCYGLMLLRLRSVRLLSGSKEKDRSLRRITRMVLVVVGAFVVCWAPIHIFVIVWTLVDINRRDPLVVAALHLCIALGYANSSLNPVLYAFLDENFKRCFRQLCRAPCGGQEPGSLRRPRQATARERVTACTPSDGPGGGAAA
The species entered for data set [8] is Mus musculus. The data set can be described thus: Antinociceptive activity in Harlan CD-1 mouse model of thermal-induced nociception assessed as increase in latency to tail withdrawal at 0.01 nmol, i.t measured after 15 to 120 mins by tail flick test. It is filed as functional, organism-based.
The target in data set [9] is Mu-type opioid receptor (Rattus norvegicus, UniProt P33535). The experiment in a line: Displacement of [3H]DAMGO from MOR in Wistar rat whole brain membranes after 45 mins by liquid scintillation counting method. Format: cell membranes, Membrane.
Mu-type opioid receptor (Rattus norvegicus, UniProt P33535), sequence (P33535 whole entry): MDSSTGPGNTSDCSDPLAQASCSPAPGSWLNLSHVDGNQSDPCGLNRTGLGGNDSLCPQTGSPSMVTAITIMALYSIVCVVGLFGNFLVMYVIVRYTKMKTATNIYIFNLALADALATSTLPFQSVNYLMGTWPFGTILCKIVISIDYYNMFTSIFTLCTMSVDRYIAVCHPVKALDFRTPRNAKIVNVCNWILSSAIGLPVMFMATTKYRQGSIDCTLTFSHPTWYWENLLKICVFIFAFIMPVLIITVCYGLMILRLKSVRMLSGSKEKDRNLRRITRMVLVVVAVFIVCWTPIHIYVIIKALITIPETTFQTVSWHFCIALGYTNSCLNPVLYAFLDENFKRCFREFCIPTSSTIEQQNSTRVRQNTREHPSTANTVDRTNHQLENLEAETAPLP
For data set [10], the species on record is Mus musculus. The experiment in a line: Antinociceptive activity in Harlan CD-1 mouse model of thermal-induced nociception assessed as increase in latency to tail withdrawal at 0.01 nmol, i.t measured after 45 to 120 mins by tail flick test. Format: functional, organism-based.
The subject of data set [11] is Mus musculus. The data set can be described thus: Antinociceptive activity in Harlan CD-1 mouse model of thermal-induced nociception assessed as increase in latency to tail withdrawal at 0.01 nmol, icv measured after 45 to 90 mins by tail flick test. It is filed as functional, organism-based.
Data set [12] is described as follows: Half life in human plasma at 100 ug/ml by HPLC method. It is filed as ADME, cell-free.
In data set [13] the target is Mu-type opioid receptor (Homo sapiens, UniProt P35372). The experiment in a line: Binding affinity to MOR (unknown origin).
Mu-type opioid receptor (Homo sapiens, UniProt P35372), sequence (P35372 whole entry): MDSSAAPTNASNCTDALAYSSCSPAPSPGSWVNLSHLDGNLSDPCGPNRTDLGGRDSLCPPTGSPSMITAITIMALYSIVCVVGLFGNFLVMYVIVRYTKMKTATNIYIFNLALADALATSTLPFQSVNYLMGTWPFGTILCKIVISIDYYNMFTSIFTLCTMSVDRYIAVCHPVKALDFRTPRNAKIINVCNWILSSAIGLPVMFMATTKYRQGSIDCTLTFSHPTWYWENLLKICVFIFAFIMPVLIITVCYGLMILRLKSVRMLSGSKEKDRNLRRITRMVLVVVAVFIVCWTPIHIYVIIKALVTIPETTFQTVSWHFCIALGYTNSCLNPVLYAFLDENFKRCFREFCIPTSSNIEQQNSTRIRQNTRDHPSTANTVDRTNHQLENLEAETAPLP

The source made the active and inactive calls. No cut-off for these calls is given here. Starred links: 1 amine or outer side, 2 acyl side, 3 side chain; linkers in the order of their positions; H or OH if unused. Positions of bridges follow the written chain, without caps; N, C: chain ends. Non-standard residues stand in square brackets, D forms with d. Residues, ends and D or L forms follow the SMILES beside them. Chains are numbered I, II in the order given. NHNH = N(N[*:2])[*:1]

Turning to `N[C@@H](Cc1ccc(O)cc1)C(=O)N[C@@H]1CSCc2ccc(cc2)CSC[C@@H](NC(=O)[C@@H](N)Cc2ccc(O)cc2)C(=O)NCC(=O)N[C@@H](Cc2ccccc2)C(=O)NNC(=O)[C@H](Cc2ccccc2)NC(=O)CNC1=O`, the result in the data set on Mus musculus [1], in the data set with Mus musculus [2], in the data set with Mus musculus [6] and in the data set filed under Mus musculus [8] was Active. For the same molecule, the Emax in the data set filed under Rattus norvegicus [3] came to 150%. This molecule came in with a concentration for a half-maximal effect (EC50) in [4] of 87.4 nM. Further, in the data set filed under Rattus norvegicus [5], the Ratio Ki was 1.5. In addition, the inhibition constant Ki in data set [7] came to 2.52 nM; on Mu-type opioid receptor [9] it was 1.61 nM.
With `N[C@@H](Cc1ccc(O)cc1)C(=O)N[C@@H]1CSCc2ccccc2CSC[C@@H](NC(=O)[C@@H](N)Cc2ccc(O)cc2)C(=O)NCC(=O)N[C@@H](Cc2ccccc2)C(=O)NNC(=O)[C@H](Cc2ccccc2)NC(=O)CNC1=O.O=C(O)C(F)(F)F.O=C(O)C(F)(F)F`, the outcome in the data set filed under Mus musculus [10], in the data set with Mus musculus [1], in the data set on Mus musculus [11] and in the data set with Mus musculus [2] was Active. The half-life at 100 ug/ml in data set [12] is 1.45 h. This molecule registered an Emax in the data set filed under Rattus norvegicus [3] of 137%. The molecule also came in with an EC50 in data set [4] of 247 nM. Further, the Ratio Ki in the data set listed under Rattus norvegicus [5] is 1.8. Besides, the values for the Ki (in [7]; at Mu-type opioid receptor [9]) were 2.26 nM and 1.33 nM, respectively.
As to `N[C@@H](Cc1ccc(O)cc1)C(=O)N[C@@H]1CSCc2cccc(c2)CSC[C@@H](NC(=O)[C@@H](N)Cc2ccc(O)cc2)C(=O)NCC(=O)N[C@@H](Cc2ccccc2)C(=O)NNC(=O)[C@H](Cc2ccccc2)NC(=O)CNC1=O`, the outcome in the data set on Mus musculus [1], in the data set on Mus musculus [2], in the data set on Mus musculus [6] and in the data set filed under Mus musculus [8] was Active. For the same molecule, the Emax in the data set listed under Rattus norvegicus [3] came out at 160%. Further, the half-maximal effective concentration (EC50) in data set [4] was determined as 213 nM. For the same molecule, the Ratio Ki in the data set listed under Rattus norvegicus [5] came out at 2.2. In addition, the Ki in data set [7] came to 3.81 nM; on Mu-type opioid receptor [9], 1.73 nM.
For `C[C@@H](NC(=O)[C@@H](N)Cc1ccc(O)cc1)C(=O)NCC(=O)N[C@@H](Cc1ccccc1)C(=O)NNC(=O)[C@H](Cc1ccccc1)NC(=O)CNC(=O)[C@@H](C)NC(=O)[C@@H](N)Cc1ccc(O)cc1` [BIPHALIN], the result with Mus musculus [1] and with Mus musculus [2] was Active. The EC50 on Mu-type opioid receptor [13] was 1 to 4 nM; in data set [4] it was 75.4 nM. Also, in data set [12], the half-life at 100 ug/ml stood at 0.55 h. Moreover, the Emax in the data set listed under Rattus norvegicus [3] turned out to be 177%. Besides, the Ki in data set [7] amounted to 3.5 nM; at Mu-type opioid receptor [9] it was 0.79 nM.
`N[C@@H](Cc1ccc(O)cc1)C(=O)N[C@@H]1CSSC[C@@H](NC(=O)[C@@H](N)Cc2ccc(O)cc2)C(=O)NCC(=O)N[C@@H](Cc2ccccc2)C(=O)NNC(=O)[C@H](Cc2ccccc2)NC(=O)CNC1=O` (I: H-Y[dC]GF / II: H-Y[dC]GF; disulfide I:2-II:2; linker I:C-II:C via NHNH) returned a maximal response (Emax) in the data set listed under Rattus norvegicus [3] of 146%. In data set [4], this molecule came in with a half-maximal effective concentration (EC50) of 508 nM. In addition, in the data set listed under Rattus norvegicus [5], the Ratio Ki was 0.9. Besides, the Ki in data set [7] came to 5.25 nM; on Mu-type opioid receptor [9], 6.06 nM.
